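Assay format: 96-well plates, 48-hour exposure. GI50: concentration for 50% inhibition of growth.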 Activity calls are given as the source filed them. Rule as the data show it: active = GI50 up to about 1.1 µM and inactive = higher.
Experiments:
Assay in all cases: growth of human tumour cells (NCI), 48 h
[1] = tested on: OVCAR-3
[2] = tested on: HT-29
[3] = tested on: HOP-92
[4] = tested on: BT-549
[5] = tested on: K562
[6] = tested on: SK-OV-3
[7] = tested on: SK-MEL-2
[8] = tested on: SF-539
[9] = tested on: NCI/ADR-RES
[10] = tested on: SR
[11] = tested on: SF-268
[12] = tested on: NCI-H226
[13] = tested on: MDA-MB-435
[14] = tested on: OVCAR-8
[15] = tested on: HCT-15
[16] = tested on: U-251
[17] = tested on: NCI-H522
[18] = tested on: HL-60
[19] = tested on: NCI-H23
[20] = tested on: UO-31
[21] = tested on: OVCAR-5
[22] = tested on: A549
[23] = tested on: DU-145
[24] = tested on: UACC-62
[25] = tested on: ACHN
[26] = tested on: EKVX
[27] = tested on: KM12
[28] = tested on: MDA-MB-231
[29] = tested on: Hs-578T
[30] = tested on: SN12C
[31] = tested on: PC-3
[32] = tested on: IGROV-1
[33] = tested on: SK-MEL-28
[34] = tested on: MDA-N
[35] = tested on: SF-295
[36] = tested on: CAKI-1
[37] = tested on: Malme-3M
[38] = tested on: COLO 205
[39] = tested on: M14
[40] = tested on: 786-0
[41] = tested on: UACC-257
[42] = tested on: SW-620
[43] = tested on: HOP-62
[44] = tested on: SNB-19
[45] = tested on: OVCAR-4
[46] = tested on: RXF 393
[47] = tested on: HCT-116
[48] = tested on: A498
[49] = tested on: NCI-H460
[50] = tested on: SK-MEL-5
[51] = tested on: MCF7
[52] = tested on: LOX IMVI
[53] = tested on: TK-10
[54] = tested on: HCC 2998
[55] = tested on: SNB-75
[56] = tested on: RPMI-8226
[57] = tested on: MOLT-4
[58] = tested on: CCRF-CEM

Measured: GI50

CC(NC(=O)c1ccc(Cl)c(Cl)c1)c1ccc(-c2ccccc2)cc1 (configuration not stated)
inactive: [1] 20.8 µM | [2] 71.6 µM | [3] 25.5 µM | [4] 66.5 µM | [5] > 100 µM | [6] 27.5 µM | [7] > 100 µM | [8] 19.3 µM | [9] 54.8 µM | [10] 15.2 µM | [11] 29.3 µM | [12] 31.3 µM | [13] 69.5 µM | [14] 26.3 µM | [16] 31.7 µM | [17] 33.3 µM | [18] 4.58 µM | [19] 48.3 µM | [20] 14.2 µM | [21] 44.9 µM | [22] 16.4 µM | [23] 18.3 µM | [24] 31.6 µM | [25] 50.1 µM | [26] 35 µM | [27] 57.7 µM | [28] 42.7 µM | [29] 27 µM | [30] 52.2 µM | [31] 28.2 µM | [32] 32.8 µM | [33] 58.6 µM | [34] > 100 µM | [35] 29.9 µM | [36] 29.9 µM | [37] 21.5 µM | [38] > 100 µM | [39] 64.7 µM | [40] 22.5 µM | [41] 76.2 µM | [42] 79.4 µM | [43] 22.2 µM | [44] 21.1 µM | [45] 16.4 µM | [46] 12.1 µM | [47] 59.3 µM | [48] 28.9 µM | [49] 47.4 µM | [50] 75.7 µM | [51] 78 µM | [52] 38.3 µM | [53] 29 µM | [54] 43.1 µM | [55] 15.8 µM | [56] 39.4 µM
> 100 µM: [15]

COc1cc(NC(C)c2ccc3c(c2)OCCO3)cc(OC)c1OC (configuration not stated)
inactive: [1] 32.1 µM | [2] 33.7 µM | [3] > 100 µM | [4] 33 µM | [5] 8.97 µM | [7] 23.2 µM | [8] 22.1 µM | [9] 22.9 µM | [10] 10.4 µM | [11] 26.7 µM | [12] 24.3 µM | [13] 4.69 µM | [14] 47.3 µM | [16] 29.5 µM | [17] 17.5 µM | [18] 18.5 µM | [19] 18.9 µM | [20] 56.9 µM | [21] 46.6 µM | [22] 45 µM | [23] 36.6 µM | [24] 29.9 µM | [25] 70 µM | [26] 33 µM | [27] 31.5 µM | [28] 32.5 µM | [29] 20.9 µM | [30] 63.2 µM | [31] 44.9 µM | [32] 59.3 µM | [33] 56.4 µM | [34] 5.4 µM | [35] 23.9 µM | [36] 46 µM | [37] 19.1 µM | [38] 31.3 µM | [39] 31.4 µM | [40] 34.4 µM | [41] 28.7 µM | [42] 33.9 µM | [43] 58.7 µM | [44] 95.5 µM | [45] 68.4 µM | [46] 27.3 µM | [47] 30.3 µM | [48] 77.1 µM | [49] 31.6 µM | [57] 26.3 µM | [50] 18.5 µM | [51] 29.6 µM | [52] 46.2 µM | [53] 63 µM | [54] 23 µM | [56] 23.9 µM
24.4 µM: [15]

Nc1ccc(-c2nc3ccccc3s2)cc1F
33.2 µM: [15]
inactive: [1] 18.5 µM | [2] 29.2 µM | [3] 45.4 µM | [4] 68.4 µM | [5] 35.6 µM | [6] 38.5 µM | [7] 19.2 µM | [9] 28.8 µM | [10] 23.6 µM | [11] 34 µM | [13] 31.6 µM | [14] > 100 µM | [16] 15.4 µM | [17] 20.9 µM | [19] 52.1 µM | [20] 14.2 µM | [22] 21.3 µM | [23] 30.2 µM | [24] 20.7 µM | [25] 22 µM | [26] 2.59 µM | [27] 28.5 µM | [28] 13.6 µM | [29] 29.1 µM | [30] 27.7 µM | [31] 21.4 µM | [33] 46.6 µM | [34] 37.2 µM | [35] 25.8 µM | [36] 19.5 µM | [37] 42 µM | [38] 20.9 µM | [39] 26.8 µM | [40] 22.6 µM | [41] 39.6 µM | [58] 5.47 µM | [42] 42.3 µM | [43] 30.7 µM | [44] 19.2 µM | [45] 18.7 µM | [46] 27.2 µM | [47] 15.5 µM | [57] 10.8 µM | [50] 20 µM | [52] 44.7 µM | [55] 21.5 µM
active: [12] < 0.01 µM | [32] < 0.01 µM | [48] 0.0775 µM | [51] < 0.01 µM

Source: ChEMBL document CHEMBL1201862, “PubChem BioAssay data set” (2004)
